Reference: patent US6608082B1, “Treatment of erectile dysfunction using isoquinoline compound melanocortin receptor ligands” (Lion Bioscience AG, priority 1998, dated 2003)
Like-named read-outs stand apart in the source and are kept apart here. Each block holds one molecule with its values, some of them ahead of it.

Legend:
[1] = molecular target: T1, MCR-4 (Homo sapiens, UniProt P32245); experiment: Melanocortin receptor binding assay, competition with 125I-HP 467, HEK 293 cells expressing hMCR-4; conditions: read-out: MC-4 IC50
T1 construct: expressed in transfected cells; host or cells: HEK 293
T1 sequence (P32245 whole entry): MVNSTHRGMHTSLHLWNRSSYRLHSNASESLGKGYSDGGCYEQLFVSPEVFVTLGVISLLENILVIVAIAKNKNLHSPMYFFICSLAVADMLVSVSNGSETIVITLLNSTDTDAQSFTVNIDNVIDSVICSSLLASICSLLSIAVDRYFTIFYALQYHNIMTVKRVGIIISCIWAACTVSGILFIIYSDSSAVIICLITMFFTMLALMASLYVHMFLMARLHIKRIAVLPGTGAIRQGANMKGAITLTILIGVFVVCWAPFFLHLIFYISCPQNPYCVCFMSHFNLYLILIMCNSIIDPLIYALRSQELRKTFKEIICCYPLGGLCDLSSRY
In short: (§1)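 Intact-cell competition binding, 2.5 hr at 37 °C, in PBS/10% calf serum/1 mM CaCl2; hMCR-4 cells at 4×10^3 per tube, hMCR-1 cells at 2×10^4 per tube. Filtration on BSA/CaCl2-soaked GF/B, cold 50 mM Tris pH 7.4 washes, scintillation count.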

[2] = molecular target: T2, MCR-1 (Homo sapiens, UniProt Q01726); experiment: Melanocortin receptor binding assay, competition with 125I-HP 467, HEK 293 cells expressing hMCR-1; conditions: for IC50: read-out: MC-1 IC50; for % Disp. MC-1 10 μM: displacement of 125I-HP 467 at 10 μM isoquinoline compound
T2 construct: expressed in transfected cells; host or cells: HEK 293
T2 sequence (Q01726 whole entry): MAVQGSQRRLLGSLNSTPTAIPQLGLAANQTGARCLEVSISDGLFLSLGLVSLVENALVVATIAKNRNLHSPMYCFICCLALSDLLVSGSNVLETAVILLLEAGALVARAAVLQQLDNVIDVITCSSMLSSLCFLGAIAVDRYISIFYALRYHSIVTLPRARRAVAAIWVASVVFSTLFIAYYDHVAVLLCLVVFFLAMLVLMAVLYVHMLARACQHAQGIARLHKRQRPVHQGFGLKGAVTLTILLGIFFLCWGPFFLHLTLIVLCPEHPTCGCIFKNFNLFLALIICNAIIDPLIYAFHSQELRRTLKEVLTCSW
In short: as §1

[3] = TRG 2406 and TRG 2407 libraries, inhibition of binding of 125I-HP 467
[4] = inhibition of binding of 125I-HP 467, HEK 293 cells expressing MCR-4, TRG 2414 library
[5] = inhibition of binding of 125I-HP 467, HEK 293 cells expressing MCR-1, TRG 2414 library
[6] = inhibition of binding of 125I-HP 467, HEK 293 cells expressing MCR-4
[7] = inhibition of binding of 125I-HP 467, HEK 293 cells expressing MCR-1
[8] = TRG 2414 library, inhibition of binding of 125I-HP 467, HEK 293 cells expressing MCR-4
[9] = TRG 2414 library, inhibition of binding of 125I-HP 467, HEK 293 cells expressing MCR-1
[10] = competition with 125I-HP 467, HEK 293 cells expressing MCR-4
[11] = competition with 125I-HP 467, HEK 293 cells expressing MCR-1

- IC50 [1, 3]: 6.26 µM
- IC50 [2, 3]: 5.75 µM
SMILES: CNC(CN)CCCCN1Cc2ccccc2C(CN(C)c2ccccc2)C1c1ccc(Cl)cc1Cl (stereo not shown) [TRG 2407-2]

- IC50 [1, 4]: 8.58 µM
- IC50 [2, 5]: 6.82 µM
SMILES: CCCOc1ccc(C2C(CNCc3ccccc3OCC)c3ccccc3CN2CCCCC(CN)NCCc2ccccc2)cc1 (stereo not shown) [TRG 2414-166]

- IC50 [1, 6]: 0.58 µM
- IC50 [2, 7]: 0.03 µM
SMILES: CCNc1ccc(C2C(CN)c3ccccc3CN2CCCC(CN)NCCC2CCCCC2)cc1 (stereo not shown) [TRG 2411-186]
- effectiveness as MC receptor ligand ([2]; binding to MC receptors, Table 1): particularly effective MC receptor ligands

- IC50 [1, 4]: 42.9 µM
- MC-1 IC50 [2, 5]: no fit
SMILES: NCC(CCCCN1Cc2ccccc2C(CNCc2ccccc2C(F)(F)F)C1c1cccc(Oc2ccccc2)c1)NCCc1ccccc1 (mixture of isomers) [TRG 2414-82]

- IC50 [1, 8]: 1.83 µM
- IC50 [2, 9]: 6.61 µM
SMILES: COc1ccc(CNCC2c3ccccc3CN(CCCCC(N)CN)C2c2ccccc2Br)cc1 (stereo not shown) [Cmpd 221]

- IC50 [1, 6]: 1.95 µM
- IC50 [2, 7]: 0.22 µM
SMILES: CCCCNc1ccc(C2C(CNC3CCCCC3)c3ccccc3CN2CCCC(CN)NCCc2ccc3ccccc3c2)cc1 (stereo not shown) [TRG 2411-213]

- IC50 [1, 10]: 21 µM
- IC50 [2, 11]: 0.95 µM
SMILES: CNC(CN)CCCCN1Cc2ccccc2C(CNC2CCCCC2)C1c1ccc(NCC(C)C)cc1 (stereo not shown) [TRG 2409-16]

- IC50 [1, 3]: 9.25 µM
- IC50 [2, 3]: 8.5 µM
SMILES: CNC(CN)CCCCN1Cc2ccccc2C(CNCc2ccccc2C(F)(F)F)C1c1ccc(Cl)cc1Cl (stereo not shown) [TRG 2407-13]

- IC50 ([1]; TRG 2405 section, inhibition of binding of 125I-HP 467, HEK 293 cells expressing MCR-4): 33.5 µM
- IC50 ([2]; TRG 2405 section, inhibition of binding of 125I-HP 467, HEK 293 cells expressing MCR-1): 5.98 µM
- % Disp. MC-1 10 μM ([2]; first of duplicate): 57.1%
- % Disp. MC-1 10 μM ([2]; second of duplicate): 59.8%
SMILES: NCCN1Cc2ccccc2C(CNC2CCCCC2)C1c1ccc[nH]1 (stereo not shown) [TRG 2405-85]

- IC50 [1, 4]: 26.8 µM
- IC50 [2, 5]: 2.14 µM
SMILES: CCOc1ccccc1CNCC1c2ccccc2CN(CCCCC(CN)NCc2ccccc2)C1c1ccc(Oc2ccccc2)cc1 (stereo not shown) [TRG 2414-127]

- IC50 [1, 6]: 4.54 µM
- IC50 [2, 7]: 0.12 µM
SMILES: CCNc1ccc(C2C(CNCCc3ccccc3)c3ccccc3CN2CCCC(N)CN)cc1 (stereo not shown) [TRG 2411-150]

- IC50 [1, 10]: 19.6 µM
- IC50 [2, 11]: 4.77 µM
SMILES: CNC(CN)CCCCN1Cc2ccccc2C(CNC2CCCCC2)C1c1ccc(NCCc2ccc(Cl)c(Cl)c2)cc1 (stereo not shown) [TRG 2409-23]

SMILES: NCC(CCCCN1Cc2ccccc2C(CNCCc2ccccc2)C1c1cc(C(F)(F)F)cc(C(F)(F)F)c1)NCc1ccc(-c2ccccc2)cc1 (stereo not shown) [TRG 2421-5]
- IC50 [1, 6]: 9.41 µM
- IC50 [2, 7]: 11.2 µM

SMILES: NCC(CCCCN1Cc2ccccc2C(CNCCc2ccc(O)cc2)C1c1cc(C(F)(F)F)cc(C(F)(F)F)c1)NCc1ccc(Br)cc1 (mixture of isomers) [TRG 2421-8]
- IC50 [1, 6]: 5.99 µM
- IC50 [2, 7]: 5 µM

SMILES: COc1ccc(CNC(CN)CCCCN2Cc3ccccc3C(CNCCc3ccc(Cl)cc3)C2c2cc(C(F)(F)F)cc(C(F)(F)F)c2)cc1 (stereo not shown) [TRG 2421-34]
- IC50 [1, 6]: 2.64 µM
- IC50 [2, 7]: 4.98 µM

- IC50 [1, 8]: 35.1 µM
- IC50 [2, 9]: 40.6 µM
SMILES: COc1cccc(CNCC2c3ccccc3CN(CCCCC(CN)NCC(C)c3ccc(CC(C)C)cc3)C2c2ccccc2Br)c1 (stereo not shown) [Cmpd 220]

SMILES: COc1ccc(CCNCC2c3ccccc3CN(CCCCC(CN)NCc3ccccc3)C2c2cc(C(F)(F)F)cc(C(F)(F)F)c2)cc1OC (stereo not shown) [TRG 2421-16]
- IC50 [1, 6]: 0.36 µM
- IC50 [2, 7]: 2.42 µM

- IC50 [1, 3]: 6.22 µM
- IC50 [2, 3]: 2.53 µM
SMILES: CNC(CN)CCCCN1Cc2ccccc2C(CNc2ccc(OC)cc2)C1c1ccc(Cl)cc1Cl (stereo not shown) [TRG 2407-9]

- IC50 [1, 3]: 16.4 µM
- IC50 [2, 3]: 1.63 µM
SMILES: CCNc1ccc(C2C(CNc3cccc(OCC)c3)c3ccccc3CN2CCCCC(CN)NC)cc1 (stereo not shown) [TRG 2407-46]

- IC50 [1, 4]: 3.47 µM
- IC50 [2, 5]: 2.05 µM
SMILES: COc1ccc(CCNCC2c3ccccc3CN(CCCCC(N)CN)C2c2ccc(Oc3ccccc3)cc2)cc1 (stereo not shown) [TRG 2414-145]

- IC50 [1, 6]: 0.52 µM
- IC50 [2, 7]: 0.12 µM
SMILES: CCCCNc1ccc(C2C(CNCCc3ccccc3)c3ccccc3CN2CCCC(CN)NCCCC)cc1 (stereo not shown) [TRG 2411-191]

SMILES: CCOc1ccc(CCNCC2c3ccccc3CN(CCCCC(CN)NCc3ccc(C)cc3)C2c2cc(C(F)(F)F)cc(C(F)(F)F)c2)cc1 (stereo not shown) [TRG 2421-22]
- IC50 [1, 6]: 8.22 µM
- IC50 [2, 7]: 3.02 µM

- IC50 [1, 4]: 6.93 µM
- IC50 [2, 5]: 5.86 µM
SMILES: COc1cccc(CNCC2c3ccccc3CN(CCCCC(CN)NCc3ccccc3)C2c2cccc(Oc3ccccc3)c2)c1 (stereo not shown) [TRG 2414-99]
